One experiment relates to PDK-1. As to the kind of experiment: PDK-1 immunoprecipitation kinase assay from ICAM-2 cells. Format: biochemical. As to conditions: compounds 10 μM, 1 hr. An excerpt:
A) ICAM-2, interacts with α-actinin and ezrin. ICAM-2, ICAM2-ΔC or control cells were immunoprecipiated for ICAM-2, and immunoblotted for either a-actinin or ezrin. Control lysates were not subjected to immunoprecipitation and reflect positive controls for detected interacting protein. […] ICAM-2, and control cells were serum starved (48, hrs), treated with LY294002, (10, μM, 24, hrs), or cultured in growth media, and prepared for intracellular detection of phosphatidyinositol 3,4,5, triphosphate detection by flow cytometry. […] Phosphotransfer of ATP to peptide substrate was detected by scintillation counting and presented as counts per minute CPM. […]
PDK-1 activity was determined by a PDK-1 immunoprecipiation kinase assay kit (Upstate Biotecnology, Lake Placid, N.Y.) as recommended by manufacturer. In brief, PDK-1 was immunoprecipitated from 1×10^6 treated cells, incubated with inactivated SGK enzyme, and detection of (γ-^32P) ATP incorporation to a SGK peptide substrate was measured by scintillation counting. PI3K activity was detected by developed PI3K FACS based assay (see below). AKT activity was detected by immunoprecipitation of AKT1 from cells and used in a kinase assay with GSK3 fusion protein (CST). […] Kinase reaction was terminated with SDS sample buffer boiled for 5 min, and phosphorylation state of GS3K was detected by immunoblotting and visualized using ECL detection (Amersham). […]

The test system of a further experiment is ezrin. As to the kind of experiment: phosphotyrosine-protein based elisa for ezrin tyrosine phosphorylation upon ICAM-2 ligation. Format: cell-based, human. As to conditions: Jurkat cells. The protocol:
A) Expression levels of ICAM-2, vary across cell lines of different origins. Quantitative flow cytometry analysis was performed to assess the number of ICAM-2 surface molecules across transformed and untransformed fibroblasts, lymphocytes of T-cell and different B-cell differentiation states and myeloid lineages (see Material and Methods for elaboration). The number of surface molecules/cell is expressed as the mean (bar)+/−SD of triplicate experiments. B) Crosslinking of endogenous ICAM-2, induces ezrin tyrosine phosphorylation and enhanced ICAM-2, interaction. Jurkat cells were crosslinked for ICAM-2 using monoclonal antibody for the indicated times and subjected to immunoprecipitation/immunoblotting as indicated. C) Inhibition of ezrin phosphotyrosine by chemical inhibitors of src and Rho-dependent kinases. D) Ezrin phosphorylation and enhanced interaction with the p85, subunit of PI3K as a function of ICAM-2. Determined as described above. E) PDK-1, activity as a function of ICAM-2, ligation, as described above). F) PI3K and AKT localize to the membrane as a function of ICAM-2, ligation. Membrane/cytosolic fractionation was performed on ICAM-2, ligated Jurkat cells as a function of time and subjected to immunoblotting for PI3K and AKT.
In order to identify upstream kineses capable of tyrosine phosphorylating ezrin as a function of ICAM-2 ligation, we developed a phosphotyrosine-protein based elisa to screen for the inhibition of ezrin tyrosine phosphorylation in vivo by various known inhibitors of protein kineses (Perez and Nolan, manuscript in preparation). […] Given the design of the screen to detect tyrosine residue phosphorylation, we speculate that activation of Rho-dependent processes may be a prerequisite for ezrin to be tyrosine phosphorylated by src (elaborated below).

In another experiment the test system is Jurkat T cells. As to the kind of experiment: anti-Fas induced apoptosis in ICAM-2 crosslinked Jurkat cells, annexin-V binding assay. Format: cell-based, human. As to conditions: inhibitor 10 μM 1 hour, anti-Fas 50 ng/ml 8 hours. The protocol: A) ICAM-2, crosslinking induced AKT activity in Jurkat T cells and subsequent phosphorylation of GSK3, FKHR, and AFX as a function of time. Serum starved Jurkat T cells were incubated with either isotype control or anti-human ICAM-2, (10, μg/ml) for the indicated times. AKT kinase activity was determined as described. Immunoblot analysis verified AKT dual phosphorylation, FKHR and GSK3 phosphorylation, and BAD phosphorylation as a function of ICAM-2, crosslinking. B) ICAM-2 crosslinking induces AKT activity in BaF3, pre-B cells. […] ICAM-2, was crosslinked on 106, Jurkat T cells using an ICAM-2, mAb (10, μg/ml) 30, minutes prior to treatment with staurosporine (+) or DMSO vehicle (−). Apoptosis was determined by flow cytometry using annexin-V binding assay. […] Cells were assessed for apoptosis by annexin-V binding assay. […]
Apoptosis was determined either by counting pyknotic nuclei, annexin-V binding by flow cytometry, or TUNEL BrdU staining by flow cytometry as indicated. Apoptosis was induced either by staurosporine (1 μm), treatment with anti-mouse Fas (5 μq/ml Santa Cruz Biotechnology (SCB), anti-human Fas ([…]) as indicated in appropriate experiment, IL-3 withdrawal-(24 hrs) or as indicated. For pyknolic nuclei count, NIH3T3 cells were grown on glass coverslips and assayed for apoptosis. Suspension cells were analyzed by nuclear staining with 25 μM acridine orange/25 μm ethidium bromide or 5 μg/ml Hoechst 33342 (Molecular Probes, Eugene, Oreg.). Apoptosis was identified by the presence of characteristic pyknotic nuclei as described (Jacobson and Raff, 1995). At least 5 individual fields were photographed and counted using a Zeiss axioscope fluorescence microscope. […] The cells were trypsinized and viable cells counted following trypan blue staining. Untreated cells were counted at the time of treatment. % survival represents (number of viable cells post-treatment)/(number of viable cells pretreatment). […] Flow cytometry analysis was performed on a BD FACSCalibur machine with CELLQuest and analyzed using FlowJo software (Tree Star).

The test system of the next experiment is CD19+ human B cells. As to conditions: 10 μM, 30 minutes.

Procedure for CD19+ human B cells: Apoptosis was measured by annexin-V binding detected by flow cytometry, and gated for CD19+, cells. […] Apoptosis was measured by annexin-V binding assay.
Antibody cross-linking experiments were performed using mAbs to anti-ICAM-1, anti-ICAM-2, anti-ICAM-3, anti-CD43, or anti-CD44 that recognizes the N-terminal region (extracellular domain) at 10 μg/ml. Spin dialysis (Biorad) was used for buffer exchange of azide containing antibodies (0.01%) to phosphate buffered saline buffer pH 7.4. Anti-mouse IgG (Sigma) was used as a control antibody in cross-linking experiments. 1×10^6 Jurkat, 1×10^6 BaF3, or 1×10^7 PBMC cells were serum starved for 4 hours respectively (except PBMC). Cells were incubated with either mAb (10 μg/ml) or mouse IgG (10 μg/ml) at 37° C. for the indicated time. Time points began post serum starvation to attenuate most of the signaling pathways or as indicated. […] Cells extracts were taken and subjected to either immunoprecipitation or immunoblotting were appropriate. Primary cells were subjected to apoptotic treatment followed by preparation for flow cytometry. GTPγS was made cell permeant by pre-incubating compound with Fugene (Roche Biochemicals) in a 1:4 molar ratio for 30 minutes at 25° C. prior to being applied to cells.

In the case of `C[C@@H](N)[C@H]1CC[C@H](C(=O)Nc2ccncc2)CC1` [Y-27632], the “PDK-1 activity in ICAM-2 cells” value in the experiment with PDK-1 is given as “partially inhibited”. Also, the “tyrosine phosphorylation of ezrin” value in the experiment on ezrin is given as “inhibit the tyrosine phosphorylation of ezrin”; in the experiment on ezrin (listed as Y-27362) it was “abolished tyrosine phosphorylation of ezrin”. The “ICAM-2 crosslinking protection against Fas induced apoptosis” value in the experiment on Jurkat T cells is “abrogated”. Moreover, in the experiment with CD19+ human B cells, the “ICAM-2 anti-apoptotic effect in CD19+ human B cells” value is “abrogated”.

The values are drawn from US8962263B2, “Methods and compositions for detecting the activation state of multiple proteins in single cells” (The Board of Trustees of the Leland Stanford Junior …, priority 2001, dated 2015).
